Read-outs that look alike come from different tables or passages of the source.
Tests used:
MES-induced seizures [1] = test: Maximal Electroshock Seizure (MES) test, rats; assay type: in vivo; details: rat, p.o., 30 mg/kg
Experimental: (§1) Toxicity was measured using the minimal motor impairment test described below.
(§2) The MES test is a model for generalized tonic-clonic seizures. The seizures are highly reproducible and electrophysiologically consistent with human seizures. The test provides information about a compound's ability to prevent the spread of seizure when all neuronal circuits of the brain are maximally active. 60 Hz of alternating current (50 mA in mice, 150 mA in rats) is applied for 2 seconds via corneal electrodes that have been treated with an electrolyte solution containing an anesthetic (0.5% tetracaine HCl). Mice are tested at a variety of intervals after an i.p. injection of […] solution of the test compound (commonly in a 0.5% solution of methylcellulose) at 30, 100, and 300 mg/kg doses. Rats are examined after a 30 mg/kg (per os, p.o.) dose that is applied in a volume of 0.04 mL/g. An animal is considered “protected” from MES-induced seizures upon removal of the hind limb extensor component of the seizure.
Male and female albino CF1 mice (18-25 g, Charles River, Portage, Mich.) and male albino Sprague-Dawley rats (275-300 g, kindling test; 100-150 g all other tests; Charles River, Raleigh, N.C.) were used as experimental animals.

seizures = test: In vivo anticonvulsant screening (MES, scMET, minimal clonic seizure), summary in words; set-up: species or system rat, mouse; details: summary of Table 2
Experimental: as §1, §2
The subcutaneous injection of metrazole, which is a convulsant, produces clonic seizures in laboratory animals. The scMET test is designed to identify compounds that raise the seizure threshold of an animal. Mice are pretreated with test compound at 30, 100, and 300 mg/kg doses in a similar manner to the MES test. Rats are treated with a 50 mg/kg dose (p.o.). At the previously determined TPE of the test compound, the dose of metrazole that will induce convulsions in 97% of animals (CD97: 85 mg/kg mice) is injected into the loose fold of the skin in the midline of the neck. The animals are placed in isolation cages to minimize stress and observed for the next 30 minutes for the presence or absence of seizures. An episode of clonic spasms (approximately 3-5 seconds) of the fore and/or hindlimbs, jaws or vibrissae is taken as the endpoint.
The minimal clonic seizure (6 Hz) test, like the MES test, is used to assess a compound's ability to protect against electrically-induced seizures. The minimal clonic (6 Hz) seizure test uses a lower frequency (6 Hz) and a longer duration of stimulation (3 seconds) than the MES test. Test compounds are pre-administered to mice via i.p. injection. At varying times, individual mice (four per time point) are challenged with sufficient current via corneal electrodes to elicit a psychomotor seizure in 97% of animals (32 mA for 3 second). Untreated mice will display seizure characterized by a minimal clonic phase followed by stereotyped, automatistic behaviors described originally as being similar to the aura of human patients with partial seizures. Animals not displaying this behavior are considered to be protected.

[2] = test system: metrazole-induced clonic seizures; test: Subcutaneous Metrazole Seizure Threshold Test (scMET), rats; assay type: in vivo; details: rat, row printed as 300, 0.4 h
MES-induced seizures [3] = test: Maximal Electroshock Seizure (MES) test, mice; assay type: in vivo; details: Mus musculus, ip, mice, i.p.
How it was run: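 Seizures were induced by a 60 Hz corneal current for 2 s (50 mA in CF1 mice, 150 mA in Sprague-Dawley rats). Mice received 30, 100 or 300 mg/kg i.p. in 0.5% methylcellulose and were tested at several intervals; rats received 30 mg/kg p.o. Protection means abolition of hind-limb tonic extension.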

For `CCOC(=O)C1[C@@H]2[C@@H](O)[C@@H]3O[C@H](c4ccc(OC)cc4)OC[C@H]3O[C@H]12` (stereo partly drawn) [Compound 16, ethyl (2R,4aR,5aS,6aR,7R,7aS)-7-hydroxy-2-(4-methoxyphenyl)hexahydro-4H-cyclopropa[5,6]pyrano[3,2-d][1,3]dioxine-6-carboxylate], the “MES 30 0.5 h (animals protected/tested)” value (MES-induced seizures [1]; 0.5 h) was 0/4, the “MES 30 4 h (animals protected/tested)” value (MES-induced seizures [1]; 4 h) was 1/4 and the “anticonvulsant activity” value (seizures) was “anticonvulsant activity”. For the same compound, the “scMET 300 0.4 h (animals protected/tested)” value [2] was 0/4, the responders at 30 mg/kg (MES-induced seizures [3]; 0.5 h, read-out: MES 30 0.5 h (animals protected/tested)) was 0% and the responders at 30 mg/kg (MES-induced seizures [3]; 4 h, read-out: MES 30 4 h (animals protected/tested)) was 0%. For the same compound, the responders at 100 mg/kg (MES-induced seizures [3]; 0.5 h, read-out: MES 100 0.5 h (animals protected/tested)) was 0%, the responders at 100 mg/kg (MES-induced seizures [3]; 4 h, read-out: MES 100 4 h (animals protected/tested)) was 0% and the responders at 300 mg/kg (MES-induced seizures [3]; 0.5 h, read-out: MES 300 0.5 h (animals protected/tested)) was 0%. The responders at 300 mg/kg (MES-induced seizures [3]; 4 h, read-out: MES 300 4 h (animals protected/tested)) was 0%.
